The values below are quoted from earlier work in article PMC8152572 (Chemical Science, 2020).

The series concerns scFv-SM3. The settings on record: SM3 antibody, comparison of 2a, 2b and 2c.

On to APDTRP [Compound 2c], for which the “binding to SM3 (in words)” value is on record as “worse binding to the naked derivative 2c”.
